Results from patent publication US20240408125A1, “COMPOSITION COMPRISING POLYGALATENOSIDE AS ACTIVE INGREDIENT FOR PREVENTION OR TREATMENT OF CANCER” (HOSEO UNIVERSITY ACADEMIC COOPERATION FOUNDATION, priority 2021, published 2024).

Experiments:
Type in all cases: cell-based, Mouse
NOX2 protein = NOX2 protein expression by Western blot with densitometry relative to β-actin; conditions: B16-F10 cells, FIG. 2
Method: (§1) B16-F10 melanoma cells were cultured under conditions of 36.5° C. and 5% CO2 using a Dulbecco's modified Eagle's medium supplemented with 10% (v/v) fetal bovine serum and 1% (v/v) penicillin-streptomycin.
B16-F10 melanoma cells were cultured for 12 hours, and then treated with polygalatenoside A at concentrations of 0, 0.1, 0.3, 1, 3, and 10 μM for 24 hours, respectively. Thereafter, the cells were washed twice with PBS, and collected, and proteins were recovered by lysing the cells with a radioimmunoprecipitation assay (RIPA) buffer containing phenylmethylsulfonyl fluoride (PMSF). 50 μg of proteins was separated by sodium dodecyl sulfate poly-acrylamide gel electrophoresis (SDS-PAGE) and then transferred to a polyvinylidene fluoride (PVDF) membrane. The membrane was treated with a tris-buffered saline (TBS; pH 7.6) containing 5% (w/v) skim milk, 0.05% (v/v) tween-20, and 0.01% (w/v) sodium azide at 25° C. for 1 hour. The membrane was washed three times with TBST (TBS containing 0.05% (v/v) tween-20) and treated with an anti-NOX2 primary antibody and a horse radish peroxidase (HRP)-conjugated secondary antibody. The protein levels were visualized using enhanced chemiluminescence (ECL) and an X-ray film. The expression level of NOX2 protein compared to β-actin was shown in FIG. 2 through a densitometry of ImageJ software.

B16-F10 melanoma cells [1] = assay: WST8 cell viability assay; conditions: 3 μM for 48 hours, WST8, absorbance at 450 nm, FIG. 3
Method: as §1
B16-F10 melanoma cells were cultured in a 96-well cell culture plate for 12 hours, and then treated with polygalatenoside A at concentrations of 0, 0.1, 0.3, 1, 3, and 10 μM for 48 hours, respectively. The medium was treated with a WST8 Cell Viability Assay Reagent to a concentration of 10% (v/v) and cultured for 2 hours. Thereafter, cell viability was confirmed by measuring absorbance at 450 nm using a microplate reader, and the results were shown in FIG. 3.

B16-F10 melanoma cells [2] = assay: Viable cell number by trypan blue staining and hemocytometer; conditions: FIG. 4
Method: as §1
Next, in order to measure changes in cell number, B16-F10 cells were cultured for 12 hours, and then treated with polygalatenoside A at concentrations of 0, 0.1, 0.3, 1, 3, and 10 μM for 72 hours, respectively. The cells were collected every 24 hours, stained with trypan blue, and the number of viable cells was measured using a hemocytometer, and the results were shown in FIG. 4.

## O=C(OCC1OC(OC2COC(CO)[C@@H](O)C2O)C(O)C(O)C1O)c1ccccc1 (some centres unmarked) [polygalatenoside A, Polygalatenoside A]
NOX2 protein; 3 μM for 24 hours
  expression of NOX2 compared to untreated control group (fold): about 1.4 times
NOX2 protein; 0.1-10 μM for 24 hours
  expression of NOX2 compared to untreated control group: increased
B16-F10 melanoma cells [1]
  cell viability (cell death effect): cell death effect was exhibited
B16-F10 melanoma cells [2]; 3 μM up to 72 hours, compared with the other concentrations
  growth inhibition effect (number of viable cells): most significantly shown
B16-F10 melanoma cells [2]; 0.1-10 μM up to 72 hours, counted every 24 hours
  growth of melanoma cells (number of viable cells): inhibited
